Data published in ChEMBL document CHEMBL5058646 (2022).

Tests used:
[1] = biological target: MAP/microtubule affinity-regulating kinase 3 (Homo sapiens) (UniProt P27448); assay: MARK3 SGC Tm panel (DSF); conditions: Compound concentration 20.0 uM
[2] = biological target: T1, Telomere zinc finger-associated protein (Homo sapiens) (UniProt P10074); conditions: SUD4, Compound concentration 1.0 uM
T1 sequence (whole entry): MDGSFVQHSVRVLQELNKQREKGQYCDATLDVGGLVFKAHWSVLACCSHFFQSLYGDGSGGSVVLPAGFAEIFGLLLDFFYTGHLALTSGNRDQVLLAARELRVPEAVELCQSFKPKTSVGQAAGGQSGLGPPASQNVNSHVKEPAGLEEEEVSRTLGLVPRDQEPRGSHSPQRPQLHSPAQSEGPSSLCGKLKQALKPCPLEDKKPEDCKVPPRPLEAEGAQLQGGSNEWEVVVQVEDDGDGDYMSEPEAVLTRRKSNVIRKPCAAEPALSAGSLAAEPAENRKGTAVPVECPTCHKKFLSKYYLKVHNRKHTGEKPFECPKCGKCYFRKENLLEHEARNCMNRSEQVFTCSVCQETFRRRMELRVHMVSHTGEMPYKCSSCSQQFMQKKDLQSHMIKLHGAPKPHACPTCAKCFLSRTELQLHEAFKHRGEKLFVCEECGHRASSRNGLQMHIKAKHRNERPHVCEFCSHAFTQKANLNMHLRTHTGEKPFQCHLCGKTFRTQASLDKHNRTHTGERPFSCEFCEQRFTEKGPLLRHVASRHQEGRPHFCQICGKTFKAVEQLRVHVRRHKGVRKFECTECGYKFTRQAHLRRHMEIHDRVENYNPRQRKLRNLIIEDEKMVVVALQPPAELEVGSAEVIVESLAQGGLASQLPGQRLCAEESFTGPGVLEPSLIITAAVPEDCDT

[3] = biological target: G protein-coupled receptor kinase 5 (Homo sapiens) (UniProt P34947); assay: GPRK5 SGC Tm panel (DSF); conditions: Compound concentration 20.0 uM
[4] = biological target: Ephrin type-A receptor 2 (Homo sapiens) (UniProt P29317); assay: EPHA2 SGC Tm panel (DSF); conditions: Compound concentration 20.0 uM
[5] = biological target: Ribosomal protein S6 kinase alpha-1 (Homo sapiens) (UniProt Q15418); assay: RPS6KA1 SGC Tm panel (DSF); conditions: Compound concentration 20.0 uM
[6] = biological target: T2, Zinc finger and BTB domain-containing protein 9 (Homo sapiens) (UniProt Q96C00); conditions: SUD4, Compound concentration 1.0 uM
T2 sequence (whole entry): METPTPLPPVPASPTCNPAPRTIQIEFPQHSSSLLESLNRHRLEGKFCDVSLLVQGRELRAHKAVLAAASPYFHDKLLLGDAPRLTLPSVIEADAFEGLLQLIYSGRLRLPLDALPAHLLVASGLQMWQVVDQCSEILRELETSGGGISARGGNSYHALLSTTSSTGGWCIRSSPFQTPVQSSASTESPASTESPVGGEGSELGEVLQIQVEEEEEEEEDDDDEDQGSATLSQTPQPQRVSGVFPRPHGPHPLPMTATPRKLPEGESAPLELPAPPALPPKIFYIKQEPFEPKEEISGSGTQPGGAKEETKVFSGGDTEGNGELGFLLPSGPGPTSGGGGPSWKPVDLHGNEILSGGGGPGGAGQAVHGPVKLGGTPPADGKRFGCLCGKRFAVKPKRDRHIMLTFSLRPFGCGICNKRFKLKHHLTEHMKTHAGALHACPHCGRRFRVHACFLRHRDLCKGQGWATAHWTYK

[7] = biological target: Beta-3 adrenergic receptor (Homo sapiens, UniProt P13945); assay: GPCRScan assay: inhibition of Beta3; design: radioligand conc. used [nm] 0.2 – 0.5, parental cells HEK Flp-In
Chain of Beta-3 adrenergic receptor (P13945 whole entry): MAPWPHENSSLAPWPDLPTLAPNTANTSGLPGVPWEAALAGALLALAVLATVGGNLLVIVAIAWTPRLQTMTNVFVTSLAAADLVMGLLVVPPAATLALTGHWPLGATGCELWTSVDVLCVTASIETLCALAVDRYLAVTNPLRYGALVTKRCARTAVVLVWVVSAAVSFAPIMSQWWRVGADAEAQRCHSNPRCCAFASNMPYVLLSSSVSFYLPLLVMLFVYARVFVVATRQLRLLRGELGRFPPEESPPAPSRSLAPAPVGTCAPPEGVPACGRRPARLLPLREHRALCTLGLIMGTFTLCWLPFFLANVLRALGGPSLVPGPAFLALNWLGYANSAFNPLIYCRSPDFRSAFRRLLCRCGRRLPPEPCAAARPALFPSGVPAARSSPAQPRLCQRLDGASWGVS

[8] = biological target: Tyrosine-protein kinase ABL1 (Homo sapiens) (UniProt P00519); assay: ABL1 SGC Tm panel (DSF); conditions: Compound concentration 20.0 uM
[9] = biological target: GABA-A receptor; anion channel (Rattus norvegicus) (UniProt O09028+P15431+P18506+P18508+P19969+P20236+P23574+P23576+P28471+P28473+P30191+P62813+P63079+P63138+Q91ZM7+Q9ES14); conditions: Compound concentration 10.0 uM
[10] = biological target: Serine/threonine-protein kinase PAK 4 (Homo sapiens) (UniProt O96013); assay: PAK4 SGC Tm panel (DSF); conditions: Compound concentration 20.0 uM
[11] = biological target: Calcium/calmodulin-dependent protein kinase kinase 2 (Homo sapiens) (UniProt Q96RR4); assay: CAMKK2 SGC Tm panel (DSF); conditions: Compound concentration 20.0 uM
[12] = biological target: Zinc finger and BTB domain-containing protein 21 (Homo sapiens) (UniProt Q9ULJ3); conditions: SUD4, Compound concentration 1.0 uM
Chain of Zinc finger and BTB domain-containing protein 21 (Homo sapiens) (Q9ULJ3 whole entry, the tested form may be a part): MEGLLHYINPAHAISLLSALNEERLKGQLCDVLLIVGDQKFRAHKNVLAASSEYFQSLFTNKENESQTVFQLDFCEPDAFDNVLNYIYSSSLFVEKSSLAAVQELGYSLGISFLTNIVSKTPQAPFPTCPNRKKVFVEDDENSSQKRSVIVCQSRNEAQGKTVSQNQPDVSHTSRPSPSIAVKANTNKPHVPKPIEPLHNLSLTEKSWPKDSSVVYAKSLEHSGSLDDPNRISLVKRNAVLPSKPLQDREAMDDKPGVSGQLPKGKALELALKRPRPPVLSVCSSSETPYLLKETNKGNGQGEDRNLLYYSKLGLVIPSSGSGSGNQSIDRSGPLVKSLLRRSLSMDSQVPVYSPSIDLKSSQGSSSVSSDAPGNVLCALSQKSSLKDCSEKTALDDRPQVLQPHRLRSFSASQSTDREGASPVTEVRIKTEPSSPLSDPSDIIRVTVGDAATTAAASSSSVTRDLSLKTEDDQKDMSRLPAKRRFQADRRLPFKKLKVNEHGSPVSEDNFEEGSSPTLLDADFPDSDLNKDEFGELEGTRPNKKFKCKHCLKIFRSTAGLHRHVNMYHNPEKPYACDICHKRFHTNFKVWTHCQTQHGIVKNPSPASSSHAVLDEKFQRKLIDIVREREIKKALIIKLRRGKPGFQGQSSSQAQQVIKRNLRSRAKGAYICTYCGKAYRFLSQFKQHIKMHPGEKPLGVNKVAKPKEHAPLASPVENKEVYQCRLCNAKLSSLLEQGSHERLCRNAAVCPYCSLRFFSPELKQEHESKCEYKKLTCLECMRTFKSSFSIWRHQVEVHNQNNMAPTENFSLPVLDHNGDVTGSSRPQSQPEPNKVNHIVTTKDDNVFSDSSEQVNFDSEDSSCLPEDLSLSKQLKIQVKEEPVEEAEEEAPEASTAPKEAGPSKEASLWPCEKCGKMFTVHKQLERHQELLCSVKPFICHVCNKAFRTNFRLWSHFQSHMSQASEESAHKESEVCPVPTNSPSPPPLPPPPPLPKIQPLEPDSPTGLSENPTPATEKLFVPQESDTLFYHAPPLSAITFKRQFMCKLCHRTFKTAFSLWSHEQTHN

[13] = biological target: Mitogen-activated protein kinase kinase kinase 5 (Homo sapiens) (UniProt Q99683); assay: MAP3K5 SGC Tm panel (DSF); conditions: Compound concentration 20.0 uM
Chain of Mitogen-activated protein kinase kinase kinase 5 (Homo sapiens) (Q99683 whole entry): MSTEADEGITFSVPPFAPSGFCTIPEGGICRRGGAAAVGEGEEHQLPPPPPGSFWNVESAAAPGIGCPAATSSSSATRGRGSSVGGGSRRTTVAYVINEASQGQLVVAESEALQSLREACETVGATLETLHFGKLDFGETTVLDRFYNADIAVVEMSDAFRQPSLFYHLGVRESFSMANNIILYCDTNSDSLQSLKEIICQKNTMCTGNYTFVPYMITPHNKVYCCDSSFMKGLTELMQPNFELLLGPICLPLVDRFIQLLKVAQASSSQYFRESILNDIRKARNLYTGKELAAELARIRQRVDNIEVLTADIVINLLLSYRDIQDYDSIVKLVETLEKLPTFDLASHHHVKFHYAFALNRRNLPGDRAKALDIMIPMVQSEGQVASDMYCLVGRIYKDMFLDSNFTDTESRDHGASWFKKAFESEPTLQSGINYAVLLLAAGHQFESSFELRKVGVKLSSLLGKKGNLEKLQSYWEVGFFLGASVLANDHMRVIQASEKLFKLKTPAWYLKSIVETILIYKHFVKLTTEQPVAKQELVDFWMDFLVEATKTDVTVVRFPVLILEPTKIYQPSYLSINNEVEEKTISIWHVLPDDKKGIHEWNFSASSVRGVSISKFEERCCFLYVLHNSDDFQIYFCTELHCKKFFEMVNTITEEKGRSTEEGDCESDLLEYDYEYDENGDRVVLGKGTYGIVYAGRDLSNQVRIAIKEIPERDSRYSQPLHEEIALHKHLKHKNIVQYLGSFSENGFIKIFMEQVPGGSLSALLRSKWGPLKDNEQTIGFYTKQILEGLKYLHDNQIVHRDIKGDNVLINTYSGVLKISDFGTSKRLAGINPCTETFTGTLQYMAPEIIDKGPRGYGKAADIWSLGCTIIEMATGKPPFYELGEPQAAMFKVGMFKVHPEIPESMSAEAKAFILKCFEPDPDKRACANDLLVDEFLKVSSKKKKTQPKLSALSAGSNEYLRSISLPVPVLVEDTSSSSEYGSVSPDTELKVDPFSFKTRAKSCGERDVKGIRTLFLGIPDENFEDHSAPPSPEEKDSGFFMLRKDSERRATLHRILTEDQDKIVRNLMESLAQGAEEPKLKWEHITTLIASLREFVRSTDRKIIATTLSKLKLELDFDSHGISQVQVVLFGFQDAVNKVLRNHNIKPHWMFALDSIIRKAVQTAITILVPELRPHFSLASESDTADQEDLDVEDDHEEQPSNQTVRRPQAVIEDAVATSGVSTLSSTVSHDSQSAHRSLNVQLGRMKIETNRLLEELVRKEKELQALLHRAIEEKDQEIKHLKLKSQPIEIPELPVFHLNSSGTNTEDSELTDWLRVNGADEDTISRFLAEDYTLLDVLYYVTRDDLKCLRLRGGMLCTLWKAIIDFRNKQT

[14] = biological target: Sodium-dependent noradrenaline transporter (Homo sapiens) (UniProt P23975); conditions: Compound concentration 10.0 uM
Chain of Sodium-dependent noradrenaline transporter (Homo sapiens) (P23975 whole entry): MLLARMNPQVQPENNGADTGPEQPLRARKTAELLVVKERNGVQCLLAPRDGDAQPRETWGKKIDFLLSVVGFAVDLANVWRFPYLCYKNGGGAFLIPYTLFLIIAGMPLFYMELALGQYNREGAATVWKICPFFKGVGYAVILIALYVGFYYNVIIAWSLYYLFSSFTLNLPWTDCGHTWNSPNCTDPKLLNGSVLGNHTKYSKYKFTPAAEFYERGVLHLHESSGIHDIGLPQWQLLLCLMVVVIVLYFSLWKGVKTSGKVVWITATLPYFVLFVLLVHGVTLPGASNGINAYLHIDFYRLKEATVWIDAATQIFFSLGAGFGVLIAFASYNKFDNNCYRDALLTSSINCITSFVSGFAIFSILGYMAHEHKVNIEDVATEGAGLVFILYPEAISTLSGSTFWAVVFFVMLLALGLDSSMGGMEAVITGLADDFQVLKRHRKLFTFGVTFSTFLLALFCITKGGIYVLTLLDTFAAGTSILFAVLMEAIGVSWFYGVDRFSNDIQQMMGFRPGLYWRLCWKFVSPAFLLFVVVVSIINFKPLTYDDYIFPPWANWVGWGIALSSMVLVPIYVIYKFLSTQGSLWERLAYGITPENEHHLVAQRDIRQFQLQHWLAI

[15] = biological target: Serine/threonine-protein kinase 38-like (Homo sapiens) (UniProt Q9Y2H1); assay: STK38L SGC Tm panel (DSF); conditions: Compound concentration 20.0 uM
[16] = biological target: Serine/threonine-protein kinase 17A (Homo sapiens) (UniProt Q9UEE5); assay: STK17A SGC Tm panel (DSF); conditions: Compound concentration 20.0 uM
Chain of Serine/threonine-protein kinase 17A (Homo sapiens) (Q9UEE5 whole entry): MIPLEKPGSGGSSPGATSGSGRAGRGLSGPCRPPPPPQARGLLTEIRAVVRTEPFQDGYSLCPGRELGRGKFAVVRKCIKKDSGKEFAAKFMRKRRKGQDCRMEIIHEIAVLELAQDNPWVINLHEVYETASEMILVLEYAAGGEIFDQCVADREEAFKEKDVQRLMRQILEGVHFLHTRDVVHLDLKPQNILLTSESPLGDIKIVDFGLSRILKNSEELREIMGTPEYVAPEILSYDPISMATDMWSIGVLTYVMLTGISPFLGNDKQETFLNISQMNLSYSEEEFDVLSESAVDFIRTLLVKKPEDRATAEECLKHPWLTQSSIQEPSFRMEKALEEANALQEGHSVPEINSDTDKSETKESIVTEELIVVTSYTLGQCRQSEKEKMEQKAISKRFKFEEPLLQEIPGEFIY

Chain of MAP/microtubule affinity-regulating kinase 3 (Homo sapiens) (P27448 whole entry, looked up): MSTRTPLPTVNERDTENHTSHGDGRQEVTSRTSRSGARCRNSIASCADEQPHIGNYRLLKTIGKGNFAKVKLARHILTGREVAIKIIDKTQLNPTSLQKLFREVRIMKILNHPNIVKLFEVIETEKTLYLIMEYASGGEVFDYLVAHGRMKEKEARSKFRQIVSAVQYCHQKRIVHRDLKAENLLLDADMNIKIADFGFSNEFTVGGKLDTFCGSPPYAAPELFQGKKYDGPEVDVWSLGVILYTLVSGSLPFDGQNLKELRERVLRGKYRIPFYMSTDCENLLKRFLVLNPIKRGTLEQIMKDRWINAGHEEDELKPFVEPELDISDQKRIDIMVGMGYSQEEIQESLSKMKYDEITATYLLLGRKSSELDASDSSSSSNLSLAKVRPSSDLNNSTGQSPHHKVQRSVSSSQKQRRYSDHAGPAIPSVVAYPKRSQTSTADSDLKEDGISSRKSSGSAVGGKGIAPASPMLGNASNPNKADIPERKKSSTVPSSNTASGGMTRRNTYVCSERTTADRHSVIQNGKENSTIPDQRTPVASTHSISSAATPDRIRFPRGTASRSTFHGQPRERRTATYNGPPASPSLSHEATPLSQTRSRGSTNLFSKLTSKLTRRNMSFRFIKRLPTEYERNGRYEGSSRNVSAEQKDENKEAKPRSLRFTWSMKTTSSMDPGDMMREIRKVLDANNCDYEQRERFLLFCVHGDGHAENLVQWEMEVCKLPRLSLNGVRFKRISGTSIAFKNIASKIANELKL

Tm [1]: 35 °C
LogFC [2]: 0.0324
Tm [3]: 40 °C
Tm [4]: 46 °C
Tm [5]: 50 °C
LogFC [6]: 0.0873
Ki ([7]; read-out: Ki): 3.99 µM
Ki ([7]; read-out: pKi (converted)): 3.89 µM
Tm [8]: 46 °C
inhibition [9]: 7.06%
Tm [10]: 46 °C
Tm [11]: 38 °C
LogFC [12]: 0.0189
Tm [13]: 40 °C
inhibition [14]: 18.1%
Tm [15]: 47 °C
Tm [16]: 42 °C
Compound: C[C@@H]1CN(c2ncc(Cl)c(Nc3ccc4c(c3)n(CCC(C)(C)O)c(=O)n4C)n2)C[C@H](C)C1(F)F
